From the supplement of paper PMC11208160

Assay: recombinant UMI read abundance after kanamycin selection (control-corrected) (log10(CPM+1)); higher = more efficient recombination; extreme values may be limits of the assay; sequences stand for … in AGTGCAGAGAAAATCGGCCAGTTTTCTCTGCCTGCAGTCCGCATGCCGTGGGACCCCTTGGGTTCTAACCTGTTGCCTAGATTTATGCAGCGGACTGCCTTTCTCCCAAAGTGATAAACCGG…AGGTTGGTTTCACT; site = the 11-nt donor
Method in brief: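 In a pooled Escherichia coli screen for the IS621 bridge recombinase, donor and donor-binding-loop pairs were each placed with a 12-nt UMI on a plasmid bearing a promoterless kanamycin gene. This library was co-electroporated with a target plasmid encoding a fixed target and T7-inducible recombinase, and cells were plated either on IPTG (0.07 mM) plus kanamycin or without selection, in two replicates each. Recombinant UMIs were PCR-amplified across the donor–target junction and sequenced, and counts were converted to CPM, averaged over replicates, scaled by control-derived factors and reported as log10(CPM+1).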
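Note: IS621 bridge recombinase in Escherichia coli cells against a fixed T5 target plasmid.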

Point of comparison: “TACTTGACATGGACCGGTTTTCCCGGTAATCCGTATTTGCA (site TACTTGACTCG)”, “recombinant UMI read abundance (log10)” value 0.0381. Against it:
- TACGCAACATGGACCGGTTTTCCCGGTAATCCGTATTTGAC (site TACGCAACTGT) — higher, 2
- TACGGAACATGGACCGGTTTTCCCGGTAATCCGTATTTGCA (site TACGGAACTTG) — higher, 1.47
- TACGTCGCATGGACCGGTTTTCCCGGTAATCCGTATTTGGA (site TACGTCGCTTC) — higher, 1.08
- TACTGAGCATGGACCGGTTTTCCCGGTAATCCGTATTTGGG (site TAATGAGCTCC) — within 0.2 log units, 0.0256
- TACTGAGCATGGACCGGTTTTCCCGGTAATCCGTATTTGGG (site TACTGAGCTCC) — higher, 0.356
- TACTGAGCATGGACCGGTTTTCCCGGTAATCCGTATTTGGG (site TAGTGAGCTCC) — within 0.2 log units, 0.0147
- TACTGAGCATGGACCGGTTTTCCCGGTAATCCGTATTTGGG (site TATTGAGCTCC) — within 0.2 log units, 0
- TACTGCCCATGGACCGGTTTTCCCGGTAATCCGTATTTGGA (site TACTGCCCTTC) — within 0.2 log units, 0.00999
- TACTGGGCATGGACCGGTTTTCCCGGTAATCCGTATTTGAA (site TACTGGGCTTT) — higher, 0.637
- TACTTGACATGGACCGGTTTTCCCGGTAATCCGTATTTGCA (site TACTTGACTAG) — within 0.2 log units, 0
- TACTTGACATGGACCGGTTTTCCCGGTAATCCGTATTTGCA (site TACTTGACTGG) — within 0.2 log units, 0
- TACTTGACATGGACCGGTTTTCCCGGTAATCCGTATTTGCA (site TACTTGACTTG) — higher, 0.591
- TACTTGACATGGACCGGTTTTCCCGGTAATCCGTATTTGCT (site AACTTGACTAG) — within 0.2 log units, 0
- TACTTGACATGGACCGGTTTTCCCGGTAATCCGTATTTGCT (site CACTTGACTAG) — higher, 0.342
- TACTTGACATGGACCGGTTTTCCCGGTAATCCGTATTTGCT (site GACTTGACTAG) — within 0.2 log units, 0.00311
- TACTTGACATGGACCGGTTTTCCCGGTAATCCGTATTTGCT (site TAATTGACTAG) — within 0.2 log units, 0.201
- TACTTGACATGGACCGGTTTTCCCGGTAATCCGTATTTGCT (site TACATGACTAG) — within 0.2 log units, 0.0307
- TACTTGACATGGACCGGTTTTCCCGGTAATCCGTATTTGCT (site TACCTGACTAG) — higher, 0.89
- TACTTGACATGGACCGGTTTTCCCGGTAATCCGTATTTGCT (site TACGTGACTAG) — within 0.2 log units, 0.16
- TACTTGACATGGACCGGTTTTCCCGGTAATCCGTATTTGCT (site TACTAGACTAG) — higher, 0.43
- TACTTGACATGGACCGGTTTTCCCGGTAATCCGTATTTGCT (site TACTCGACTAG) — higher, 0.277
- TACTTGACATGGACCGGTTTTCCCGGTAATCCGTATTTGCT (site TACTGGACTAG) — higher, 0.46
- TACTTGACATGGACCGGTTTTCCCGGTAATCCGTATTTGCT (site TACTTAACTAG) — within 0.2 log units, 0
- TACTTGACATGGACCGGTTTTCCCGGTAATCCGTATTTGCT (site TACTTCACTAG) — within 0.2 log units, 0.00555
- TACTTGACATGGACCGGTTTTCCCGGTAATCCGTATTTGCT (site TACTTGACTAA) — within 0.2 log units, 0.00336
- TACTTGACATGGACCGGTTTTCCCGGTAATCCGTATTTGCT (site TACTTGACTAC) — within 0.2 log units, 0.0348
- TACTTGACATGGACCGGTTTTCCCGGTAATCCGTATTTGCT (site TACTTGACTAG) — higher, 1.12
- TACTTGACATGGACCGGTTTTCCCGGTAATCCGTATTTGCT (site TACTTGACTAT) — within 0.2 log units, 0.00796
- TACTTGACATGGACCGGTTTTCCCGGTAATCCGTATTTGCT (site TACTTGACTCG) — within 0.2 log units, 0
- TACTTGACATGGACCGGTTTTCCCGGTAATCCGTATTTGCT (site TACTTGACTGG) — within 0.2 log units, 0
- TACTTGACATGGACCGGTTTTCCCGGTAATCCGTATTTGCT (site TACTTGACTTG) — within 0.2 log units, 0.00876
- TACTTGACATGGACCGGTTTTCCCGGTAATCCGTATTTGCT (site TACTTGCCTAG) — within 0.2 log units, 0
- TACTTGACATGGACCGGTTTTCCCGGTAATCCGTATTTGCT (site TACTTGGCTAG) — within 0.2 log units, 0.00865
- TACTTGACATGGACCGGTTTTCCCGGTAATCCGTATTTGCT (site TACTTGTCTAG) — within 0.2 log units, 0.0219
- TACTTGACATGGACCGGTTTTCCCGGTAATCCGTATTTGCT (site TACTTTACTAG) — within 0.2 log units, 0
- TACTTGACATGGACCGGTTTTCCCGGTAATCCGTATTTGCT (site TAGTTGACTAG) — within 0.2 log units, 0.00537
- TACTTGACATGGACCGGTTTTCCCGGTAATCCGTATTTGCT (site TATTTGACTAG) — within 0.2 log units, 0.0574
